From patent US12692259B2, “Morpholine-containing and piperazine-containing CXCR4 modulators and uses related thereto” (Emory University, priority 2021, dated 2026)

Experiments:
in vitro = settings: mouse, pH 7.4; for half-life at 3 µM: microsomes; for Liver Microsomes % rem. @ 10 min. M: 3 µM
Procedure: Metabolic stability assay was performed at Emory University's Department of Chemistry or by Bristol Myers Squibb. The method used by Emory University's Department of Chemistry is described below.
Each method was developed in the presence of an internal standard (ISTD) d5-7-ethoxy coumarin. The column temperature was maintained at 40° C. for most of the samples otherwise noted. The detection was operated in the Agilent JetStream electrospray positive ionization using multiple reaction monitoring mode (MRM).
Other MS conditions were as follows: dwell time 100 ms; gas flow 10 L/min; nebulizer pressure 45 psi; delta EMV 200 V; fragmentor voltage and collision energy for individual compounds vary.
Test compounds were dissolved in 100% DMSO or 100% MeOH to make 10 mM stock solutions. Verapamil (Sigma Aldrich) aided as a positive control and was dissolved in 100% DMSO to make 10 mM stock solutions. The 10 mM stock solution of test and control compounds were further diluted in potassium phosphate buffer (100 mM, pH 7.4) to 500 μM to ensure the organic solvent content was <0.2%. Human liver microsomes (HLMs) were purchased from Xenotech at 20 mg/mL. NADPH (Sigma Aldrich) 10 mM stocks were prepared in deionized water.
The HLM assay was prepared in a 1.5 mL Eppendorf tube with a final volume of 1100 μL for duplicate runs. Each reaction contained phosphate buffer (928.4 μL), liver microsomes (55 μL), and test compound resulting in a final concentration of 3 μM (6.6 μL of 500 μM). The reaction was initiated with 110 μL of 10 mM NADPH. […] Before centrifugation each of the aliquoted tubes were vortexed to make sure compounds were in the solution. The aliquots were centrifuged at 12,000 g for 5 min and the supernatant removed and placed in an LC-MS vial. Each time point was assessed using LC-MS and the area, based on the extracted ion, was integrated with respect to the ISTD. […] A no-NADPH negative control with test or control compound was performed in a single run (150 μL) at the longest time point. Controls were processed and analyzed like the test compounds. Each time point was run in duplicates followed by in-between blank washes to avoid the carryover and to equilibrate the column.
The MLM assay was performed using the same procedures as those described above for the HLM assay.

[1] = Metabolic stability assay, human liver microsomes (HLM); type: in vitro ADME; settings: for half-life at 3 µM: pH 7.4, read-out: Liver Microsomes T1/2 (min) H
Excerpt: Controls were processed and analyzed like the test compounds.

CXCR4 = CXCR4 (Homo sapiens, UniProt P61073); assay: cAMP assay in CXCR4-CHO-Glo cells (GloSensor, forskolin + SDF-1α); type: cell-based; parameters: expressed in transfected cells
CXCR4, sequence (P61073 whole entry): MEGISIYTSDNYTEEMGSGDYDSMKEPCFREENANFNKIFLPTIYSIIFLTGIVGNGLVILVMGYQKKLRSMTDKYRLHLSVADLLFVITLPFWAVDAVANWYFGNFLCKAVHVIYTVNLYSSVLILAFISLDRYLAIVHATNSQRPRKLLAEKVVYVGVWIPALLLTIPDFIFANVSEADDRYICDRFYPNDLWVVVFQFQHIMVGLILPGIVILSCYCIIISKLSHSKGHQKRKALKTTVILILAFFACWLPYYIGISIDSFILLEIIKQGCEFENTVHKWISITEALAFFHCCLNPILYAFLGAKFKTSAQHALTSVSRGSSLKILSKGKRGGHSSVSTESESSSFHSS
Excerpt: Materials, reagents, and instrument—Advanced DMEM (Gibco), trypsin EDTA (0.05%, phenol red), L-glutamine, HBSS buffer with and without Ca^2+/Mg^2+ (Gibco), antibiotic-antimycotic (Gibco), hygromycin B, and geneticin selective antibiotic (G418 sulfate) were purchased from Invitrogen. Forskolin (Tocris), SDF-1α (R&D Systems), HEPES (Sigma Aldrich), FBS (Atlanta Biologicals), D-luciferin (Gold Biotechnology), sterile 60 mm tissue culture dishes, and 96-well sterile tissue culture plates were purchased from Corning.
The assay targeted CXCR4 expressed in CHO-gloSensor cells. It monitored GPCR activation based on forskolin-stimulated cAMP production in cells. The assay used a genetically encoded biosensor with its cAMP binding domain fused to luciferase. Binding of cAMP to the cAMP binding domain changed the conformation of the biosensor, leading to the activation of luciferase. The intensity of the luciferase signal (light output) resulted from the oxidation of D-luciferin to oxyluciferin is proportional to the amount of cAMP produced in the cells.
The assay was performed in triplicate using live cells in 96-well tissue culture plates. Cells were pre-incubated in the dark at room temperature for one hour in the presence of D-luciferin. Bioluminescence was quantified before and after the agonist/antagonist addition. Stock solution of forskolin and SDF-1a, was prepared in Locke-Luc buffer. Stock solutions of the test compounds were prepared in DMSO (10 mM); they were diluted by Locke's buffer for use in the assay.
CHO-Glo cells, a cell line stably expressing the GloSensor cAMP biosensor (Promega), were transfected with cDNA encoding human CXCR4 in Pires-AcGFP1 (Clontech) and a stable cell line was isolated (CXCR4-CHO-Glo cells). The CXCR4-CHO-Glo cells were grown to confluency on 60 mm tissue culture dishes. After trypsinization, the cells were plated on 96-well plates and incubated overnight. The next day, culture media in each well was aspirated and replaced with 100 μL Locke's buffer containing 4 mM D-luciferin, followed by incubation in the dark for one hour. Before the addition of agonist/antagonist, each plate was read five times at 2 min intervals to obtain basal bioluminescence values from each well. The average of these five pre-readings was used to normalize each well's response to account for differences in GloSensor expression and cell density. After five pre-readings, cAMP formation was initiated with the addition of 50 μL solution of test compound (TC) in Locke Luc buffer containing forskoline and SDF-1α. […] Luminescence was measured immediately after the addition of the antagonist solution. The measurements were taken every two minutes for 30 minutes in kinetics mode after antagonist addition. IC50 values were calculated from the 4-parameter logistic equation using Prism GraphPad.

Row | half-life at 3 µM (in vitro) | half-life at 3 µM [1] | IC50 (CXCR4) | Liver Microsomes % rem. @ 10 min. M (in vitro) | Liver Microsomes % rem. @ 10 min. H [1] | Structure (SMILES)
1 | 35 min | 37 min | 0.0316 µM |  |  | CN(C[C@H]1Cc2c(cccc2N2CCNC(=O)C2)CN1)[C@H]1CCCc2cccnc21 [EMU-254, 4-((R)-3-((methyl((S)-5,6,7,8-tetrahydroquinolin-8-yl)amino)methyl)-1,2,3,4-tetrahydroisoquinolin-5-yl)piperazin-2-one]
2 | 5.5 min | 16 min | 0.0146 µM |  |  | CC(=O)N1CCN(c2cccc3c2C[C@H](CN(C)[C@H]2CCCc4cccnc42)NC3)CC1 [EMU-262, 1-(4-((R)-3-((methyl((S)-5,6,7,8-tetrahydroquinolin-8-yl)amino)methyl)-1,2,3,4-tetrahydroisoquinolin-5-yl)piperazin-1-yl)ethan-1-one]
3 | 3 min | 10 min | 0.0483 µM |  |  | CN(C[C@H]1Cc2c(cccc2N2CCN(S(C)(=O)=O)CC2)CN1)[C@H]1CCCc2cccnc21 [EMU-263, (S)—N-methyl-N—(((R)-5-(4-(methylsulfonyl)piperazin-1-yl)-1,2,3,4-tetrahydroisoquinolin-3-yl)methyl)-5,6,7,8-tetrahydroquinolin-8-amine]
4 | 126 min | 288 min | 0.244 µM |  |  | CN1CCN(c2cccc3c2C[C@@H](CN(C)[C@H]2CCCc4cccnc42)NC3)C(=O)C1 [EMU-251, 4-methyl-1-((S)-3-((methyl((S)-5,6,7,8-tetrahydroquinolin-8-yl)amino)methyl)-1,2,3,4-tetrahydroisoquinolin-5-yl)piperazin-2-one]
5 |  |  | 0.055 µM | 36.9% | 48.5% | CN(C[C@H]1Cc2c(cccc2N2CC3COC2C3)CN1)[C@H]1CCCc2cccnc21 (stereo in doubt) [EMU-324, (S)—N—(((R)-5-((1S,4R)-2-oxa-6-azabicyclo[2.2.1]heptan-6-yl)-1,2,3,4-tetrahydroisoquinolin-3-yl)methyl)-N-methyl-5,6,7,8-tetrahydroquinolin-8-amine]
6 |  |  | 0.0289 µM | 91.6% | 74.7% | CN1CCN(c2cccc3c2CC(CN(C)[C@H]2CCOc4cccnc42)NC3)CC1 (stereo partly drawn) [EMU-320, (4S)—N-methyl-N-((5-(4-methylpiperazin-1-yl)-1,2,3,4-tetrahydroisoquinolin-3-yl)methyl)-3,4-dihydro-2H-pyrano[3,2-b]pyridin-4-amine]
7 | 7.4 min | 4.9 min | 0.0037 µM |  |  | CCOC(=O)N1CCN(c2cccc3c2C[C@H](CN(C)[C@H]2CCCc4cccnc42)NC3)CC1 [EMU-261, ethyl 4-((R)-3-((methyl((S)-5,6,7,8-tetrahydroquinolin-8-yl)amino)methyl)-1,2,3,4-tetrahydroisoquinolin-5-yl)piperazine-1-carboxylate]
8 | 17 min | 16 min | 0.0693 µM |  |  | CN1CCN(c2cccc3c2C[C@H](CN(C)[C@H]2CCCc4cccnc42)NC3)CC1=O [EMU-255, 1-methyl-4-((R)-3-((methyl((S)-5,6,7,8-tetrahydroquinolin-8-yl)amino)methyl)-1,2,3,4-tetrahydroisoquinolin-5-yl)piperazin-2-one]
9 |  |  | 0.00615 µM | 33.8% | 23.7% | CN(C[C@H]1Cc2c(cccc2N2CCN3CCOC[C@H]3C2)CN1)[C@H]1CCCc2cccnc21 [EMU-343, (S)—N—(((R)-5-((R)-hexahydropyrazino[2,1-c][1,4]oxazin-8(1H)-yl)-1,2,3,4-tetrahydroisoquinolin-3-yl)methyl)-N-methyl-5,6,7,8-tetrahydroquinolin-8-amine]
